Legend:
[1] = drug administered after the cardiac load is given; Non patent literature 6; cited from earlier work
[2] = test system: transverse aortic constriction (TAC) model; conditions: Non patent literature 5; cited from earlier work
CSQ-Tg mice [3] = assay: Improvement effect on left ventricular hypertrophy and lung weight increase in CSQ-Tg mice; assay type: in vivo; conditions: CSQ-Tg female mice, 5 weeks old, 30 mg/kg body weight/day oral QD for 14 days, n=10; p<0.05 vs vehicle (t-test)
Method: (§1) Calsequestrin (CSQ) cardiac specific transgenic mice (CSQ-Tg mice), which were reported in Larry R. Jones et al., J. Clin. Invest. 101: 1385-1393, 1998, were obtained from University of Pennsylvania, breeded in our company and put in use. In tests, using male and female mice, administration of a medicament was started on and after the mice reached 5 weeks old. The animals were raised in the conditions: room temperature: 20 to 26° c., humidity: 40 to 70%, illumination time: 12 hours/day (7:00-19:00) by giving a solid feed (CE-2, manufactured by CLEA Japan, Inc.) and tap water. In the CSQ-Tg mice, as already reported, Ca^2+ intracellular release was suppressed; myocardial contraction declined and cardiac output decreased. Cardiac hypertrophy and heart failure developed.
In this example, the effect of compound A′ in improving left ventricular hypertrophy and lung weight increase caused by heart failure was examined.
Compound A′ was suspended in a 0.5% aqueous methylcellulose solution (10 mL/kg) and orally administered to CSQ-Tg female mice of 5 weeks old with heart failure in a dosage of 30 mg/kg body weight/day once per day (QD) for 14 days (n=10). […] Thereafter, lung weight (Lung), left-ventricle weight (LV) and body weight (BW) were individually measured and were standardized with the BW.

CSQ-Tg mice [4] = assay: Effect on survival rate of heart failure model animals (CSQ-Tg mice); assay type: in vivo; conditions: CSQ-Tg female mice, 5 weeks old, 30 mg/kg body weight/day oral QD for 30 days, n=30; log-rank test p<0.001 vs vehicle
Method: as §1
In this example, effect of compound A′ on survival rate of heart failure model animals was examined.
Compound A′ was orally administered to CSQ-Tg female mice (n=30) of 5 weeks old in a dosage of 30 mg/kg body weight/day once per day (QD) for 30 days. To negative control (vehicle administration group) mice, a 0.5% aqueous methylcellulose solution was administered (n=30).

CSQ-Tg mice [5] = assay: Atrial weight reduction effect in heart failure model animal (CSQ-Tg mice); assay type: in vivo; conditions: CSQ-Tg male mice, 5 weeks old, 30 mg/kg body weight/day oral QD for 14 days, n=7; p<0.05 vs vehicle (t-test)
Method: as §1
In this example, using CSQ-Tg mice as a heart failure model animal, the atrial weight reduction effect of compound A′ was evaluated.
Compound A′ was suspended (10 mL/kg) in a 0.5% aqueous methylcellulose solution (hereinafter in Examples, sometimes referred to as a “vehicle”) and orally administered to CSQ-Tg male mice of 5 weeks old with heart failure in a dosage of 30 mg/kg body weight/day once per day (QD) for 14 days (n=7). To negative control (vehicle administration group) mice, a 0.5% aqueous methylcellulose solution was administered (n=9). Thereafter, the atrial weight of the mice was measured.

Compound | Cardiac hypofunction [1] | Cardiac hypertrophy [2] | LV/BW (left-ventricle weight standardized with body weight), average value ± standard deviation (CSQ-Tg mice [3]) | Lung/BW (lung weight standardized with body weight), average value ± standard deviation (CSQ-Tg mice [3]) | Survival rate (Kaplan-Meier, FIG. 1) (CSQ-Tg mice [4]) | Left atrial weight, average value (CSQ-Tg mice [5]) [mg]
C[C@@H](N[C@H]1CCCC[C@@H]1NC(=O)c1ccc(Cl)cc1)c1cccc2ccccc12 [Calhex231] | cardiac hypofunction is not improved | cardiac hypertrophy is improved | – | – | – | –
CCc1ccc(C(CC)(CC)NC(=O)c2c(C)nn3c2N[C@@H](c2ccccc2)CC3(C)C)cc1 [Compound A′] | – | – | 7.9 ± 1.0 | 6.8 ± 1.3 | significantly improved | 8.4

Source: patent publication US10849902B2, “Medicament for treating heart failure” (TAKEDA PHARMACEUTICAL COMPANY LIMITED, priority 2015, dated 2020)
